Reference: PubChem BioAssay AID192 (DTP/NCI, 2004)
Values joined by “and” are separate entries in the source; they are usually repeats but may differ in a detail not shown here. Equal values may be shown once. Inconclusive results and toxic doses are left out.

Test system: BDF1 mice, B16 melanoma ip, median survival T/C
Experiment: NCI In Vivo Anticancer Drug Screen. Data for tumor model B16 Melanoma (intraperitoneal) in B6D2F1 (BDF1) mice
Details: endpoint: median survival time, higher = longer survival
In short: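 Transplantable tumor model; survival or tumor size measured; reported as T/C, treated over vehicle control.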

[1] = dose: 100.0 mg/kg/injection, schedule: Q01DX009 (ip), vehicle: Klucel (hydroxypropylcellulose) (HPC)
[2] = dose: 200.0 mg/kg/injection, schedule: Q01DX009 (ip), vehicle: Klucel (hydroxypropylcellulose) (HPC)
[3] = dose: 50.0 mg/kg/injection, schedule: Q01DX009 (ip), vehicle: saline
[4] = dose: 100.0 mg/kg/injection, schedule: Q01DX009 (ip), vehicle: saline
[5] = dose: 200.0 mg/kg/injection, schedule: Q01DX009 (ip), vehicle: saline
[6] = dose: 12.5 mg/kg/injection, schedule: Q01DX009 (ip), vehicle: saline with Tween-80
[7] = dose: 25.0 mg/kg/injection, schedule: Q01DX009 (ip), vehicle: saline with Tween-80
[8] = dose: 50.0 mg/kg/injection, schedule: Q01DX009 (ip), vehicle: saline with Tween-80
[9] = dose: 100.0 mg/kg/injection, schedule: Q01DX009 (ip), vehicle: saline with Tween-80
[10] = dose: 200.0 mg/kg/injection, schedule: Q01DX009 (ip), vehicle: saline with Tween-80
[11] = dose: 100.0 mg/kg/injection, schedule: Q04DX003 (ip), vehicle: Klucel (hydroxypropylcellulose) (HPC)
[12] = dose: 200.0 mg/kg/injection, schedule: Q04DX003 (ip), vehicle: Klucel (hydroxypropylcellulose) (HPC)
[13] = dose: 400.0 mg/kg/injection, schedule: Q01DX009 (ip), vehicle: saline with Tween-80
[14] = dose: 400.0 mg/kg/injection, schedule: Q01DX009 (ip), vehicle: Klucel (hydroxypropylcellulose) (HPC)
[15] = dose: 25.0 mg/kg/injection, schedule: Q01DX009 (ip), vehicle: Klucel (hydroxypropylcellulose) (HPC)

CS(=O)(=O)Nc1ccc(C(=O)O)cc1
T/C [1]: 100 % of control | T/C [2]: 102 % of control

COC(=O)c1ccc[n+](CC(=O)c2ccccc2)c1
T/C [3]: 95 % of control | T/C [4]: 93 % of control | T/C [5]: 99 % of control

C/C=C\C(C)=C/C(C)C(=O)CC(O)CC1CC(=O)NC(=O)C1 (stereo not drawn)
T/C (dose: 3.12 mg/kg/injection, schedule: Q01DX009 (ip), vehicle: DMSO): 95 % of control | T/C (dose: 6.25 mg/kg/injection, schedule: Q01DX009 (ip), vehicle: DMSO): 119 % of control | T/C (dose: 12.5 mg/kg/injection, schedule: Q01DX009 (ip), vehicle: DMSO): 103 % of control | T/C (dose: 25.0 mg/kg/injection, schedule: Q01DX009 (ip), vehicle: DMSO): 96 % of control

CC(=Nc1ccccc1)C1=C(O)C(Cc2ccc(O)cc2)NC1=O (stereo not drawn)
T/C [6]: 111 % of control

Nc1ccc(S(=O)(=O)c2ccc(N)cc2)cc1
T/C [6]: 107 % of control | T/C [7]: 97 % of control and 102 % of control | T/C [8]: 90 % of control and 94 % of control | T/C [9]: 93 % of control and 95 % of control | T/C [10]: 94 % of control

O=C(O)CCC(=O)Nc1ccccc1C(F)(F)F
T/C (dose: 12.5 mg/kg/injection, schedule: Q04DX003 (ip), vehicle: saline with Tween-80): 108 % of control | T/C (dose: 25.0 mg/kg/injection, schedule: Q04DX003 (ip), vehicle: saline with Tween-80): 111 % of control | T/C (dose: 50.0 mg/kg/injection, schedule: Q04DX003 (ip), vehicle: saline with Tween-80): 113 % of control | T/C (dose: 100.0 mg/kg/injection, schedule: Q04DX003 (ip), vehicle: saline with Tween-80): 108 % of control | T/C (dose: 200.0 mg/kg/injection, schedule: Q04DX003 (ip), vehicle: saline with Tween-80): 105 % of control

O=C(NCCCl)N(c1ccccc1)c1cccc(C(F)(F)F)c1
T/C [11]: 114 % of control | T/C [12]: 105 % of control | T/C (dose: 400.0 mg/kg/injection, schedule: Q04DX003 (ip), vehicle: Klucel (hydroxypropylcellulose) (HPC)): 106 % of control

CCN(CC)CCOC(=O)CC1CCCCC1
T/C [3]: 99 % of control | T/C [4]: 96 % of control | T/C [5]: 95 % of control

Cc1cccc(NC(=O)c2ccccc2)c1C
T/C [7]: 99 % of control | T/C [8]: 99 % of control | T/C [9]: 93 % of control

Cc1c[nH]c(=O)[nH]c1=O
T/C (dose: 32.0 mg/kg/injection, schedule: Q01DX009 (ip), vehicle: Klucel (hydroxypropylcellulose) (HPC)): 97 % of control and 102 % of control | T/C (dose: 32.0 mg/kg/injection, schedule: Q01DX009 (ip), vehicle: saline with Tween-80): 91 % of control | T/C (dose: 64.0 mg/kg/injection, schedule: Q01DX009 (ip), vehicle: Klucel (hydroxypropylcellulose) (HPC)): 97 % of control | T/C (dose: 64.0 mg/kg/injection, schedule: Q01DX009 (ip), vehicle: saline with Tween-80): 100 % of control | T/C (dose: 128.0 mg/kg/injection, schedule: Q01DX009 (ip), vehicle: Klucel (hydroxypropylcellulose) (HPC)): 97 % of control and 103 % of control | T/C (dose: 256.0 mg/kg/injection, schedule: Q01DX009 (ip), vehicle: Klucel (hydroxypropylcellulose) (HPC)): 100 % of control and 103 % of control | T/C (dose: 512.0 mg/kg/injection, schedule: Q01DX009 (ip), vehicle: Klucel (hydroxypropylcellulose) (HPC)): 98 % of control and 103 % of control | T/C (dose: 512.0 mg/kg/injection, schedule: Q01DX009 (ip), vehicle: saline with Tween-80): 107 % of control

CNC(=O)Oc1ccc2ccccc2c1
T/C [9]: 100 % of control | T/C [10]: 104 % of control | T/C [13]: 93 % of control

O=C(O)Cc1c(O)ccc2ccccc12
T/C (dose: 25.0 mg/kg/injection, schedule: Q04DX003 (ip), vehicle: gum acacia): 100 % of control | T/C (dose: 50.0 mg/kg/injection, schedule: Q04DX003 (ip), vehicle: gum acacia): 100 % of control | T/C (dose: 100.0 mg/kg/injection, schedule: Q04DX003 (ip), vehicle: gum acacia): 97 % of control

Cc1ccc(S(=O)(=O)N/N=C\c2cc(Cl)ccc2O)cc1
T/C [1]: 100 % of control | T/C [2]: 105 % of control | T/C [14]: 102 % of control

O=C(CCCN1CCC(O)(c2ccc(Cl)cc2)CC1)c1ccc(F)cc1
T/C (dose: 3.12 mg/kg/injection, schedule: Q01DX009 (ip), vehicle: saline): 99 % of control | T/C (dose: 6.25 mg/kg/injection, schedule: Q01DX009 (ip), vehicle: saline): 114 % of control | T/C (dose: 12.5 mg/kg/injection, schedule: Q01DX009 (ip), vehicle: saline): 102 % of control | T/C [3]: 99 % of control

O=C(Cl)C1CC2c3ccccc3C1([N+](=O)[O-])c1ccccc12 (stereo not drawn)
T/C (dose: 50.0 mg/kg/injection, schedule: Q04DX003 (ip), vehicle: Klucel (hydroxypropylcellulose) (HPC)): 94 % of control | T/C [11]: 100 % of control | T/C [12]: 102 % of control

c1ccc(CNC(Cc2ccccc2)c2ccc(OCc3ccccc3)cc2)cc1 (stereo not drawn)
T/C [1]: 106 % of control | T/C [2]: 96 % of control | T/C [14]: 93 % of control

CC(=N)/C(C(=O)NC1CCCCC1)=C(/C)O
T/C (dose: 100.0 mg/kg/injection, schedule: Q04DX003 (ip), vehicle: saline): 100 % of control | T/C (dose: 200.0 mg/kg/injection, schedule: Q04DX003 (ip), vehicle: saline): 97 % of control | T/C (dose: 400.0 mg/kg/injection, schedule: Q04DX003 (ip), vehicle: saline): 97 % of control

O=[N+]([O-])c1ccc2c(c1)sc1cc([N+](=O)[O-])c(Br)cc12
T/C [8]: 102 % of control | T/C [9]: 102 % of control | T/C [10]: 100 % of control | T/C [13]: 90 % of control

O=S(=O)(c1ccc(NC(=S)N/N=C/c2ccccc2O)cc1)N1CCCCC1
T/C (dose: 25.0 mg/kg/injection, schedule: Q01DX009 (ip), vehicle: olive oil, sesame oil, peanut oil): 87 % of control | T/C (dose: 50.0 mg/kg/injection, schedule: Q01DX009 (ip), vehicle: olive oil, sesame oil, peanut oil): 87 % of control

CC(=O)N(C)N(Cc1ccc(C#N)cc1)C(C)=O
T/C [15]: 98 % of control | T/C (dose: 50.0 mg/kg/injection, schedule: Q01DX009 (ip), vehicle: Klucel (hydroxypropylcellulose) (HPC)): 96 % of control | T/C [1]: 99 % of control | T/C [2]: 98 % of control | T/C [14]: 95 % of control

CC(O)(C(=O)O)c1ccccc1 (stereo not drawn) (tested in a mixture with another compound)
T/C [1]: 94 % of control | T/C [2]: 105 % of control | T/C [14]: 97 % of control

O=C(CCl)c1ccc(O)c(O)c1
T/C (dose: 12.5 mg/kg/injection, schedule: Q01DX009 (ip), vehicle: Klucel (hydroxypropylcellulose) (HPC)): 94 % of control | T/C [15]: 87 % of control

CN(CCCN(C)CCC1CCCCC1)CCC1CCCCC1
T/C [6]: 92 % of control | T/C [7]: 95 % of control

C[C@@H]1CCC[C@@H](NC(=O)N(CCCl)N=O)C1
T/C (dose: 4.7 mg/kg/injection, schedule: Q01DX009 (ip), vehicle: Klucel (hydroxypropylcellulose) (HPC)): 103 % of control | T/C (dose: 18.7 mg/kg/injection, schedule: Q01DX009 (ip), vehicle: Klucel (hydroxypropylcellulose) (HPC)): 210 % of control | T/C (dose: 18.75 mg/kg/injection, schedule: Q01DX009 (ip), vehicle: Klucel (hydroxypropylcellulose) (HPC)): 192 % of control | T/C (dose: 37.5 mg/kg/injection, schedule: Q01DX009 (ip), vehicle: Klucel (hydroxypropylcellulose) (HPC)): 103 % of control and 229 % of control

CCCN(CCC)CC(C)=O
T/C [11]: 107 % of control | T/C [12]: 97 % of control
